From ChEMBL document CHEMBL5725356, “Anti-fibrotic pyridinones” (2017)

Experiment: ET-1 Assay: Fibroblasts (primary human lung and dermal, HFL-1, 3T3 etc) are seeded in 96-well plates at ~15000 cells/well and serum starved for 0-48 hours. After media exchange, compounds serially diluted in DMSO are added to the cells. After a brief incubation of ~30 min, stimulants (TGFb, serum, LPA etc) are added followed by further incubation for 16-48 hours. Media is then harvested and stored frozen in plate format for later endothelin-1 (ET-1) determination by ELISA. Toxicity measurements are made using the ATPlite kit (Perkin-Elmer). ET-1 is quantified using an ELISA kit (R&D Systems). The amount of ET-1 produced in the assay wells are back-calculated using the ELISA standard. The ability of a compound to inhibit ET-1 production is typically analyzed by fitting dose-response curves to a 4-parameter logistic function to obtain an EC50 value.
Conditions: HFL1

Row | Structure (SMILES) | EC50
1 | Cn1cc(-c2ccc(=O)n(-c3ccccc3)n2)cn1 | > 200 µM
2 | Cc1cc(=O)n(-c2ccc(OC(F)(F)F)cc2)cc1-c1ccncc1 | > 200 µM
3 | Cn1cc(-c2cn(-c3ccc(OC(F)(F)F)cc3)c(=O)cc2NCc2c(F)cccc2F)cn1 | in the range around 125 µM
4 | Cc1ccccc1-n1cc(-c2cnn(C)c2)ccc1=O | > 200 µM
5 | O=c1ccc2c(n1-c1ccccc1)CCC2 | > 200 µM
6 | O=c1c2nsnc2c(-c2ccc(F)cc2)cn1-c1ccc(OC(F)(F)F)cc1 | > 200 µM
7 | CCOc1ccc(-n2cc(-c3ccc(F)cc3)ccc2=O)c(C)c1 | > 200 µM
8 | CC(C)n1ccc2c(-c3cn[nH]c3)cn(-c3ccc(OC(F)(F)F)cc3)c(=O)c21 | < 50 µM
9 | Cn1cc(-c2cn(-c3ccc(OC(F)(F)F)cc3)c(=O)c3c2ccn3C2CC2)cn1 | < 50 µM
10 | Cn1cc(-c2cn(-c3ccc(OC(F)(F)F)cc3)c(=O)cc2Oc2ccc(Cl)cc2)cn1 | > 200 µM
11 | CCOc1ccc(CNc2cc(=O)n(-c3ccc(OCC)cc3C)cc2-c2cnn(C)c2)c(C)c1 | < 50 µM
12 | O=c1cc(OC2CCS(=O)(=O)CC2)c(-c2ccc(F)cc2)cn1-c1ccc(OC(F)(F)F)cc1 | < 50 µM
13 | COc1ccc(-c2ccc(=O)n(-c3cncnc3)c2)cc1 | > 200 µM
14 | CCCC(=O)Nc1cc(=O)n(-c2ccc(OC(F)(F)F)cc2)cc1-c1ccc(F)cc1 | > 200 µM
15 | CCOc1ccc(-n2cc(-c3ccc4scnc4c3)c(C)cc2=O)c(C)c1 | > 200 µM
16 | Cn1cc(-c2cn(-c3ccc(OC(F)(F)F)cc3)c(=O)cc2Oc2ccccc2)cn1 | < 50 µM
17 | O=c1ccc(-c2ccccc2)cn1-c1ccc(F)cc1 | in the range around 125 µM
18 | O=c1c2scnc2c(-c2cn[nH]c2)cn1-c1ccc(OC(F)(F)F)cc1 | < 50 µM
19 | O=c1ccc(-c2cccc(Cl)c2)cn1-c1ccc(Cl)cc1 | < 50 µM
20 | Cc1cc(=O)n(-c2ccc(OC(F)(F)F)cc2)cc1-c1cnsc1 | > 200 µM
21 | Cc1cc(=O)n(-c2ccc(OC(F)(F)F)cc2)cc1-n1ccnc1 | > 200 µM
22 | Cc1cc(=O)n(-c2cccc(OC(F)(F)F)c2)cc1-c1cnn(C)c1 | > 200 µM
23 | O=c1ccc(-c2ccccc2)cn1-c1cccc(F)c1 | > 200 µM
24 | O=c1ccc(C(F)(F)F)cn1-c1cccc(F)c1 | > 200 µM
25 | CC(C)c1cc(=O)n(-c2ccc(OC(F)(F)F)cc2)cc1-c1ccc(F)cc1 | in the range around 125 µM

Row | Structure (SMILES) | EC50
26 | CCn1cnc2c(-c3cn[nH]c3)cn(-c3ccc(OC(F)(F)F)cc3)c(=O)c21 | < 50 µM
27 | Cc1cc(=O)n(-c2ccccc2F)cc1-c1cnn(C)c1 | > 200 µM
28 | Cn1cc(-c2cn(-c3ccc(OC(F)(F)F)cc3)c(=O)c3c2ccn3C)cn1 | < 50 µM
29 | CCOc1ccc(-n2cc(Br)c3nccnc3c2=O)c(C)c1 | < 50 µM
30 | Cn1cc(-c2cn(-c3ccccc3)c(=O)c3c2CCCC3)cn1 | < 50 µM
31 | CCn1ccc2ccn(-c3ccc(OC(F)(F)F)cc3)c(=O)c21 | < 50 µM
32 | Cn1cc(-c2cn(-c3ccc(OC(F)(F)F)cc3)c(=O)cc2Oc2ccccc2F)cn1 | > 200 µM
33 | Cn1cc(-c2cn(-c3ccc(Cl)cc3)c(=O)c3nccnc23)cn1 | > 200 µM
34 | Cc1cc(=O)n(-c2ccc(OC(F)(F)F)cc2)cc1-c1ccc2oc(=O)[nH]c2c1 | < 50 µM
35 | Cn1cc(-c2cn(-c3ccc(OC(F)(F)F)cc3)c(=O)c3[nH]ncc23)cn1 | > 200 µM
36 | N#Cc1ccc(-n2cc(-c3cn[nH]c3)c3cc[nH]c3c2=O)cc1 | in the range around 125 µM
37 | CCn1ccc2c(-c3ccc(F)cc3)cn(-c3ccc(OC(F)(F)F)cc3)c(=O)c21 | < 50 µM
38 | CCOc1ccc(-n2cc(-c3cnn(C)c3)c(Oc3ccccc3)cc2=O)c(C)c1 | < 50 µM
39 | CCOc1ccc(Oc2cc(=O)n(-c3ccc(OC(F)(F)F)cc3)cc2-c2cnn(C)c2)cc1C | > 200 µM
40 | CC(=O)Nc1cccc(-n2cc(-c3ccc(F)cc3)c(Oc3ccccc3)cc2=O)c1 | < 50 µM
41 | Cn1cc(C2=CN(c3ccc(OC(F)(F)F)cc3)CC=C2Oc2ccc(C(N)=O)cc2)cn1 | < 50 µM
42 | O=c1ccc(C(F)(F)F)cn1-c1ccc(NCCN2CCN(CCO)CC2)cc1Cl | in the range around 125 µM
43 | Cc1cc(=O)n(-c2ccc(OC(F)(F)F)cc2)cc1-c1ccccc1F | < 50 µM
44 | CCOc1ccc(-n2cc(-c3cnn(C)c3)c(NCc3ccc(OCCOC)cc3)cc2=O)c(C)c1 | < 50 µM
45 | COCCOc1ccc(-n2cc(-c3ccc(F)cc3)c(C)cc2=O)cc1 | in the range around 125 µM
46 | COc1ccc(-c2ccc(=O)n(-c3ccccc3F)c2)cc1 | > 200 µM
47 | Cc1cc(=O)n(-c2ccc(OC(F)(F)F)cc2)cc1-c1ccc(F)c(Cl)c1 | < 50 µM
48 | O=c1c2cccnc2c(-c2ccc(F)cc2)cn1-c1ccc(OC(F)(F)F)cc1 | > 200 µM
49 | Cn1cc(-c2cn(-c3ccc(OC(F)(F)F)cc3)c(=O)c3nccnc23)cn1 | < 50 µM
50 | Cc1cc(=O)n(-c2ccc(OC(F)(F)F)cc2)cc1-c1ccc2c(c1)N(C)C(=O)CO2 | < 50 µM
